In ChEMBL document CHEMBL5726951, “Small molecule inhibitors of the JAK family of kinases” (2019):

How the values were obtained:
[1] = molecular target: Non-receptor tyrosine-protein kinase TYK2 (Homo sapiens, UniProt P29597, C1142A/C936A); assay: (§1) Enzymatic Inhibition Assay: Substrate (NH2-[…]-CO2), internal standard peptide (NH2-[…]-CO2) and product peptide (for standard curve only) (NH2-[…]-Pi-FELVKK-CO2), were purchased from AnaSpec (Fremont, Calif., USA). JAK1-JH1JH2 (574-1154 with a His-GST Tag and a C-terminal tev (ENLYFQ-G) cleavage site), JAK3-JH1JH2 (512-1124 with a GST Tag and a C-terminal tev (ENLYFQ-G) cleavage site), and Tyk2-JH1JH2 (8H_tev_580-1182-C936A-C1142A with a C-terminal tev (ENLYFQ-G) cleavage site) were purified internally. JAK2-JH1JH2 (532-1132 with a GST tag and C-terminal tev (ENLYFQ-G) cleavage site), was purchased from Invitrogen. LC/MS grade water and acetonitrile (ACN), were purchased from HoneyWell, Burdick & Jackson (Muskegon, Mich., USA). Dimethylsulfoxide 99.8% (DMSO) and trifluoroacetic acid 99.5% (TFA) were purchased from EMD Chemical (Gibbstown, N.J., USA). Adenosine triphosphate (ATP), 4-morpholinepropanesulfonic acid (MOPS), magnesium chloride (MgCl2), ethylenediaminetetraacetic acid (EDTA), dithiothreitol (DTT), formic acid>95% (FA) and Tween-20 were purchased from Sigma (St Louis, Mo., USA). 384-well polypropylene plates, Cat#781280 were purchased from Greiner (Monroe, N.C.), RapidFire™ cartridge A C4 Column (Agilent Technologies, Santa Clara, Calif.).The HTMS experiments were performed in positive ionization mode on a RapidFire 300 instrument (Agilent Technologies, Santa Clara, Calif.), coupled with an ABSiex QTrap 4000 system with an Electrospray Ionization source (RF-MS) (Concord, ON, Canada). The RapidFire system was run with 3 Agilent 1200 series isocratic pumps Agilent Technologies (Santa Clara, Calif.) and one peristaltic pump model ISM832C from Ismatec (Wertheim, Germany). The entire system was operated using the RapidFire software interfaced with Analyst software for the mass spectrometer.Assay Protocol11-point dosing series were made for each compound by serially diluting 1:3 or 1:4 in DMSO, with point 12 being a DMSO control. From the serial dilution plates, sample was transferred to a 384 wells assay plate (#781280, Greiner, Monroe, N.C.) using Labcyte Echo (Sunnyvale, Calif.), or Biosero ATS (San Diego, Calif.). The compounds were tested in duplicate. Column 12 was used for positive controls, and column 24 contained negative controls with no enzyme added. A compound from our internal collection, with inhibitory activity for JAK isoforms, was used as a reference compound. The final concentration of DMSO was ≤0.25% in a 20 μL reaction. The enzyme reaction was initiated by the addition of 10 μL of enzyme and ATP mixture to 10 μL of substrate solution prepared in reaction buffer (50 mM MOPS pH 7.5, 10 mM MgCl2, 1 mM EDTA, 2 mM DTT, 0.002% Tween-20). The Tyk2 enzyme was pre-incubated with 2 mM ATP for 30 min prior to the reaction initiation. Immediately after the addition of the enzyme to the reaction mixture, the plate was centrifuged at 1000 rpm for 1 minute and incubated at 25° C. for 45 minutes for JAK3 and 90 minutes for JAK1, JAK2 and Tyk2. The reaction was quenched by the addition of 20 μL of 0.5% TFA containing 0.15 μM of internal standard peptide using Multidrop Combi reagent dispenser (Thermo Scientific, Waltham, Mass.). Several wells in column 24 were typically used for the product standard curve. After the quench, the assay plate was centrifuged at 3000 rpm for 3 minutes and sealed with pierceable aluminum foil (Cat#06644-001, Agilent) using a PlateLoc (Agilent Technologies, Santa Clara, Calif.). The plates then were transferred on to the RapidFire for the MS analysis. Compound inhibition was assessed by a decrease of the phosphorylated product levels in sample wells compared to the non-inhibited enzyme reaction.
[2] = molecular target: Tyrosine-protein kinase JAK1 (Homo sapiens, UniProt P23458); assay: as §1
[3] = molecular target: T1, Tyrosine-protein kinase JAK3 (Homo sapiens, UniProt P52333); assay: as §1
T1 sequence (P52333 whole entry): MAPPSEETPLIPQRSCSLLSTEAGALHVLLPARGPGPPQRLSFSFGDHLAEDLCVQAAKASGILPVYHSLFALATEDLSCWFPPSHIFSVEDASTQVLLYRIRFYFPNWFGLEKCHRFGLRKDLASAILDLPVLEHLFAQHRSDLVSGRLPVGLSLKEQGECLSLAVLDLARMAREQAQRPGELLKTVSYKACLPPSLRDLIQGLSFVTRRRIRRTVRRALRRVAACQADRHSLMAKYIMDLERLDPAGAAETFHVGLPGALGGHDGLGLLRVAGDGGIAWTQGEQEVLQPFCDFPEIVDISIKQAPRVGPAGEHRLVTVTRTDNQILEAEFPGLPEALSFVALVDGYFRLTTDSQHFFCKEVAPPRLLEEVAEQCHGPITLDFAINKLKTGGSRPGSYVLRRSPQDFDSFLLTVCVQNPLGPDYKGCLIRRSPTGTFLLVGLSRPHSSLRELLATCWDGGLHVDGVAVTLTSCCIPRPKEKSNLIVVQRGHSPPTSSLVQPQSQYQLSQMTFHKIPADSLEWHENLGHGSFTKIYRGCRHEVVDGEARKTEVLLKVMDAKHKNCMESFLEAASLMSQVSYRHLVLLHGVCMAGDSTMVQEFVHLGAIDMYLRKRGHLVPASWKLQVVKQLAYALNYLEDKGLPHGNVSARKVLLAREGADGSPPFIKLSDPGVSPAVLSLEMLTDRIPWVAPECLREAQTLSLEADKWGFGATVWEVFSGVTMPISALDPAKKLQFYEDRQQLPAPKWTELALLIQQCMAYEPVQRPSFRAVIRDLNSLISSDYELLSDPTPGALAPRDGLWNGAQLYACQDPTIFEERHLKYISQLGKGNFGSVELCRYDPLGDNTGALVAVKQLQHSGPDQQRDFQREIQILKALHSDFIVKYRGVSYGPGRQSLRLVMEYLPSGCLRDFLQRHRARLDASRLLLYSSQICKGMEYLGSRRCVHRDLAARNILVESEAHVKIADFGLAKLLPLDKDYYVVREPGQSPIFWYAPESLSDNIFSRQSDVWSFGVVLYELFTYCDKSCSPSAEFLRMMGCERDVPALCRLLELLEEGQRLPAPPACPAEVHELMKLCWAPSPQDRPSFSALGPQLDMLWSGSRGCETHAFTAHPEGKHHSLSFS

[4] = molecular target: Tyrosine-protein kinase JAK2 (Homo sapiens, UniProt O60674); assay: LC/MS grade water and acetonitrile (ACN), were purchased from HoneyWell, Burdick & Jackson (Muskegon, Mich., USA). […] The compounds were tested in duplicate. Column 12 was used for positive controls, and column 24 contained negative controls with no enzyme added. A compound from our internal collection, with inhibitory activity for JAK isoforms, was used as a reference compound. […] The enzyme reaction was initiated by the addition of 10 μL of enzyme and ATP mixture to 10 μL of substrate solution prepared in reaction buffer (50 mM MOPS pH 7.5, 10 mM MgCl2, 1 mM EDTA, 2 mM DTT, 0.002% Tween-20). The Tyk2 enzyme was pre-incubated with 2 mM ATP for 30 min prior to the reaction initiation. Immediately after the addition of the enzyme to the reaction mixture, the plate was centrifuged at 1000 rpm for 1 minute and incubated at 25° C. for 45 minutes for JAK3 and 90 minutes for JAK1, JAK2 and Tyk2. […] The plates then were transferred on to the RapidFire for the MS analysis. Compound inhibition was assessed by a decrease of the phosphorylated product levels in sample wells compared to the non-inhibited enzyme reaction.
Sequence of Tyrosine-protein kinase JAK2 (O60674 whole entry, canonical isoform): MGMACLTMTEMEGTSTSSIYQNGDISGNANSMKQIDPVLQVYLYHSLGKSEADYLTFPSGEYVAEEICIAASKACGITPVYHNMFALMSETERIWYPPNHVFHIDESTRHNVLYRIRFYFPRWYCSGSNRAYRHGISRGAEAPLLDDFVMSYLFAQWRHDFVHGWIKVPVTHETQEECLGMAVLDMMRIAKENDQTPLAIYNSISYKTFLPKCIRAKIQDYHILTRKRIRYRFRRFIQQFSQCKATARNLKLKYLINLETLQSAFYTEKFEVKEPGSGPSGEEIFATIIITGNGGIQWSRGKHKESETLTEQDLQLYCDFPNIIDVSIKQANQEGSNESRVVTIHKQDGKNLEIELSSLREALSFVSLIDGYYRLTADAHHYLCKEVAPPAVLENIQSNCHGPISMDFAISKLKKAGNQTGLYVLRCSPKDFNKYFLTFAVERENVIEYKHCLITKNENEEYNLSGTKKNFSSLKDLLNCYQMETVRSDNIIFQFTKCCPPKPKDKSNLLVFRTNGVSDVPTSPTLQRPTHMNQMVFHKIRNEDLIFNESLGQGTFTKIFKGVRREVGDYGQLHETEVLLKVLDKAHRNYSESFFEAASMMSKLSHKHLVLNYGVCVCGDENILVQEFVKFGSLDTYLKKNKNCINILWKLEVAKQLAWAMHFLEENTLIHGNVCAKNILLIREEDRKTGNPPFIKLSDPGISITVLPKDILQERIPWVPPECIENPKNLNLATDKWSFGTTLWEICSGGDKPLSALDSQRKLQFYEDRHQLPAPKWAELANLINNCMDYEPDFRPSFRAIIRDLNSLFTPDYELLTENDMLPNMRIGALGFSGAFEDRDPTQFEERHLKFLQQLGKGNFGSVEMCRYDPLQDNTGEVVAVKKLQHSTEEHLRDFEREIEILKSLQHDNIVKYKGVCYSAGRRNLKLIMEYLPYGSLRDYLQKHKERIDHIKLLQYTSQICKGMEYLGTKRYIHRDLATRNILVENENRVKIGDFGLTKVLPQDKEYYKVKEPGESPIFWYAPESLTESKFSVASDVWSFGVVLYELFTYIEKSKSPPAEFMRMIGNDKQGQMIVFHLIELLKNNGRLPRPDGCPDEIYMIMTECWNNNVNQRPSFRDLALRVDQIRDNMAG

Sequence of Non-receptor tyrosine-protein kinase TYK2 (P29597 whole entry C936A/C1142A): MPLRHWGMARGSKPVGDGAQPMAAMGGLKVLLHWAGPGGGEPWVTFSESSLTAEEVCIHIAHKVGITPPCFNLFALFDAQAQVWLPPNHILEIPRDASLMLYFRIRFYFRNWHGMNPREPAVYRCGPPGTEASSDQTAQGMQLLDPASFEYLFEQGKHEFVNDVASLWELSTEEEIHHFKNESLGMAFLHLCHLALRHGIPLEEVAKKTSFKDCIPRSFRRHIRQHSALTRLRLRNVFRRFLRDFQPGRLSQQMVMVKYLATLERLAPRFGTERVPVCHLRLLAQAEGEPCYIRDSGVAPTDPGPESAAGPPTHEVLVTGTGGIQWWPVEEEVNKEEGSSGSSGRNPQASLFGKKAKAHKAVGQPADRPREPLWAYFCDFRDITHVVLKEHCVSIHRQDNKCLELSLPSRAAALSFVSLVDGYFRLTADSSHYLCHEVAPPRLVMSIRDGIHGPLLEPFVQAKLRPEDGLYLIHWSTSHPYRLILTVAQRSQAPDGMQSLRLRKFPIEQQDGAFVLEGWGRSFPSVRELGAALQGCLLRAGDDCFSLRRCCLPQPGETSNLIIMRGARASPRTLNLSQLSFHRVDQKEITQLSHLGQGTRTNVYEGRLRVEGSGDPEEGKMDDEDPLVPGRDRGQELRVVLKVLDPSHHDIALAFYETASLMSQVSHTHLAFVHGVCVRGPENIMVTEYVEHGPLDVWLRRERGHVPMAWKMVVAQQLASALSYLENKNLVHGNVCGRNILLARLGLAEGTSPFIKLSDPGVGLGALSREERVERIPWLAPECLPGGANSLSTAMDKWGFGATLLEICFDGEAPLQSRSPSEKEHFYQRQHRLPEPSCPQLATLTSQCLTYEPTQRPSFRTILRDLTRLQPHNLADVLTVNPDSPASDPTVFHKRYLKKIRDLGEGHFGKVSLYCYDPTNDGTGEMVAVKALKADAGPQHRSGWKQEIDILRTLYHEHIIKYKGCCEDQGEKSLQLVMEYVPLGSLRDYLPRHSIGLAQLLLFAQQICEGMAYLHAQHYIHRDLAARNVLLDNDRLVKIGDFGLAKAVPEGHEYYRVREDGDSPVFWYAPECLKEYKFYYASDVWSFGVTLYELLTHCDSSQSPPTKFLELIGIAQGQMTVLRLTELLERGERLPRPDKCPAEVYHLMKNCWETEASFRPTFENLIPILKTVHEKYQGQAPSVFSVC
Sequence of Tyrosine-protein kinase JAK1 (P23458 whole entry): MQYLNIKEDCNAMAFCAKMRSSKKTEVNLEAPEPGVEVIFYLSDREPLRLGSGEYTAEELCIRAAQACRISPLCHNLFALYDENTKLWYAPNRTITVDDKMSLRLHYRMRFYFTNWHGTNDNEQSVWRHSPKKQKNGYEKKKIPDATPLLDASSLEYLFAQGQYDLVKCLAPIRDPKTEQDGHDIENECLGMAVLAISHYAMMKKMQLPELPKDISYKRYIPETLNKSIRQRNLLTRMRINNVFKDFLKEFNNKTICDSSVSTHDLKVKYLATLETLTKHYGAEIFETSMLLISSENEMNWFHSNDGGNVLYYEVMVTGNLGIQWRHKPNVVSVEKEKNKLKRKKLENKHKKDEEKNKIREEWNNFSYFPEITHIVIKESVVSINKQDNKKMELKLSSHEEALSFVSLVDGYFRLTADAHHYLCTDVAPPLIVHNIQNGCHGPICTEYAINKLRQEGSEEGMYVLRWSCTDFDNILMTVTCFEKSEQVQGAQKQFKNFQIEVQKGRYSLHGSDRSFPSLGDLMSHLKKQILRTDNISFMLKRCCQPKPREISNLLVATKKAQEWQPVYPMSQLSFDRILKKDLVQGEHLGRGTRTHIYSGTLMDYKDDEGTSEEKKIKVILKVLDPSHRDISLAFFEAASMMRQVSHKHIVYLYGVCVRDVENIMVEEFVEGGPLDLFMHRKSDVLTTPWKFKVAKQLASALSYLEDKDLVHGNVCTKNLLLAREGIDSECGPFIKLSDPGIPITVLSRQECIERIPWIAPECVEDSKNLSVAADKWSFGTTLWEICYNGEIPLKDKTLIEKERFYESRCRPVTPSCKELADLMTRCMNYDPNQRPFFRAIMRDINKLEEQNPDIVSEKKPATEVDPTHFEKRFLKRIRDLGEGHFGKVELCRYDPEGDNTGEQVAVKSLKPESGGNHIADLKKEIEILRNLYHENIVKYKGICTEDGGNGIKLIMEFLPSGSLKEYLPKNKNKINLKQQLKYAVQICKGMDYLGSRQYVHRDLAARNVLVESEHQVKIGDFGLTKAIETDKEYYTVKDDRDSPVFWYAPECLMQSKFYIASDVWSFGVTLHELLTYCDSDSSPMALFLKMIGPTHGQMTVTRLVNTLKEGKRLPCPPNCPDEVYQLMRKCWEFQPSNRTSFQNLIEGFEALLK

With `Cc1nc2cnc3[nH]ccc3c2n1[C@H]1CC[C@H](CC#N)CC1` the IC50 [1] was 0.9 nM, the IC50 [2] was < 0.2 nM and the IC50 [3] was 12.4 nM. For the same compound, the IC50 [4] was < 0.2 nM.
`N#CC[C@H]1CC[C@H](n2c(CO)nc3cnc4[nH]ccc4c32)CC1` was tested, and the IC50 [1] was < 0.2 nM, the IC50 [2] was < 0.2 nM and the IC50 [3] was 13.4 nM. The IC50 [4] was < 0.2 nM.
